Results from patent US11148998B2, “Dimethyl-nonatetraenyl-trimethyl-cyclohexyl compounds and uses thereof” (The Regents of the University of Michigan, priority 2017, dated 2021).

What was measured:
[1] = system: human skin in organ culture; conditions: cited from earlier work
[2] = system: normal human skin in organ culture; assay: Retinoid-induced skin thickening in human skin organ culture; assay type: cell-based; conditions: 1 μg/mL, 8 days organ culture
Description: Human skin biopsies were incubated for 8 days in organ culture. […] At the end of the incubation period, the tissue was fixed for histology and examined at the light microscopy level after staining with hematoxylin and eosin. […] These abnormalities are not seen in the ex. 1—treated skin section.
Replicate 2-mm punch biopsies (up to 12 per subject) are obtained from hip skin of volunteers 18-70 years of age. The participation of human subjects is approved by the University of Michigan Institutional Review Board and all subjects provide written informed consent prior to their inclusion in the study. The punch biopsies are incubated in wells of a 24 well dish (one tissue piece per 200-500 μL of culture medium). Culture medium consists of KBM. For organ culture, the culture medium is supplemented with calcium chloride to a final calcium concentration of 1.5 mM. One or two wells are typically left as control while the others are treated as desired. Fresh culture medium and treatments are provided at 2-day intervals. Organ culture-conditioned medium collected at day-2 is saved for cytokine assessment or for measure of other bioactive molecules as desired. At the end of the incubation period (typically, day-8), the tissue is fixed in 10% buffered formalin and used for histology. The organ culture protocol used here is virtually identical to that described in several past reports (see, e.g., Varani J, et al., J Clin Invest. 1994; 94:1747-1756; Varani J, et al., Am J Pathol. 1993 January; 142(1):189-98; Lateef H, et al., Am J Pathol. 2004; 165:167-174; Varani J, et al., Exp Mol Pathol. 2004; 77(3):176-83; Varani J, et al., Am J Pathol. 1993 June; 142(6):1813-22; Varani J, et al., Toxicol. Pathol. 35:693-701, 2007; Rittié L, et al., J Invest Dermatol, 126:732-739, 2006).

rhino mouse skin = assay: Rhino mouse topical treatment: skin histology (horn-filled utriculi, epidermal thickness, inflammation); assay type: in vivo; conditions: for Epidermal thickness / Utriculus number / skin structure in histology (dermal thickness, utriculi, necrosis, infiltration) / inflammatory response / inflammatory cell infiltrate in histological sections (in words) / Inflammatory index: 21 days; for Inflammatory index: scored 0 to 4+
Description: FIGS. 12A-C: Efficacy of retinoids at normalizing structure of rhino mouse skin after topical treatment for 21 days.
FIGS. 13A-C: Dose related effect of Example 2 on rhino mouse skin.
The rhinomouse model is an industry-standard pre-clinical model for evaluation of retinoids for anti-acne activity. The mice can be treated topically over a course of days with the desired compound (either formulated or in liquid solvent). During the course of treatment, the animals can be evaluated grossly for skin irritation. At the end of the treatment phase, the animals are euthanized. Skin from treated sites can be evaluated for efficacy—reduction in the number of horn-filled utriculi—and for histological evidence of inflammation.
As a control, Tretinoin-0.1% was used. […] This is a commonly-prescribed anti-acne medicine.
One day after the last treatment, animals were euthanized. The animals were injected with 7 ml 10% buffered formalin after euthanasia. 15 minutes later the treated area on the back of the mouse was removed and cut into 8 pieces. Every other piece was taken, so four pieces of skin were mounted in one cassette and fixed for histology. An extra piece of skin from a non-treated area was also evaluated.
Hematoxylin and eosin stained sections were evaluated microscopically for epidermal thickness with measurements made in the inter-follicular regions at 4 representative sites per tissue strip.
The number of horn-filled utriculi was determined by direct counting in the entire section of skin. Each of the four sections per biopsy was used for determining the number of utriculi. Section lengths were measured as a way to normalize findings. Typically, the section of skin varied from 16-20 mm.
Slides were examined microscopically and inflammation was scored on a 0 to 4+ basis. A score of zero indicated no inflammation while increasing collection of inflammatory cells was identified with increasing score. Slides were also evaluated to determine if inflammation was confined to the dermis or whether there was epidermal inflammation. Dermal inflammation was assessed to determine if inflammatory cells were scattered throughout the dermis or whether small abscesses were also present. Finally, the inflammatory lesions were evaluated to determine whether they consisted of primarily mononuclear cells, granulocytic cells or both. A similar scale has been used previously in the assessment of skin irritation.
At the end of the in-life portion of the study, mice were euthanized by CO2 overdose. Hematoxylin and eosin-stained histological sections from each mouse in the control, ATRA-treated and Compound 2-treated groups were evaluated with regard to the number of horn-filled utriculi, epidermal thickness, and inflammation. Briefly, the epidermis of control mice consisted of a thin epidermis with large numbers of horn-filled utriculi (98+10 per 20 mm of epidermal linear length). […] Both the ATRA-treated mouse (top right panel) the Compound 2 treated skin (bottom panel) show both much thickened […] and disappearance of utriculi. […] There were large numbers of inflammatory cells in the dermis. Microabscesses could be seen in places, and migration of inflammatory cells into the epidermis was also evident. The infiltrate consisted of both mononuclear cells and granulocytes. […] The three other experimental retinoids were also examined along with Compound 2. […] In FIG. 13 it can be seen that during the dosing period 0.1% of Compound 2 led to skin thickening, but incomplete resolution of the utricali, whereas at 0.3% the utricali were more fully resolved.

[3] = system: serum pro-inflammatory cytokines; conditions: mouse, in vivo
Description: Each of the 4 experimental retinoids was made up in DMSO as 0.1% and 0.3% solutions. The material was applied to the treatment area (2 cm^2 area) on a dot marked area on the inter-scapular back) once daily for 7 consecutive days or for 21 consecutive days. The test agent was gently rubbed into the test site after application. As a control, Tretinoin-0.1% was used. […] This is a commonly-prescribed anti-acne medicine. A set amount of the test article, DMSO, DMSO plus test drug, or Tretinoin cream (35 mg) was delivered using a Gilson MICROMAN fully adjustable positive placement pipette.
Serum was obtained from all mice at the end of the study and evaluated for levels of pro-inflammatory cytokines. For this, the same multiplex ELISA used with human samples was employed except that mouse-recognizing antibodies replaced antibodies used to detect the human counterparts.

[4] = topical, concentration not given

SMILES	effect on collagen-degrading enzyme MMP-1 (collagenase 1) ([1]; human skin organ culture model)	procollagen I production ([1]; human skin organ culture model)	up-regulation of the pro-inflammatory cytokines that underlie retinoid-induced skin irritation ([1]; past studies)	epidermal thickening (hyperplastic changes), histology [2]	toxicity in the upper epidermis, histology [2]	Epidermal thickness (rhino mouse skin; 0.1% topical)	Utriculus number (rhino mouse skin; 0.1% topical)	skin structure in histology (dermal thickness, utriculi, necrosis, infiltration) (rhino mouse skin; 0.1% topical)	inflammatory response / inflammatory cell infiltrate in histological sections (in words) (rhino mouse skin; [4])	IL-1β serum level [3]	IL-6 serum level [3]	KC/IL-8 serum level [3]	MCP-1 serum level [3]	TNF-α serum level [3]	serum pro-inflammatory cytokine levels compared to control mice (in words) [3]	number of utriculi compared to control (in words) (rhino mouse skin; [4])	Inflammatory index (rhino mouse skin; 0.1% topical)	Epidermal thickness (rhino mouse skin; 0.3% topical)	Utriculus number (rhino mouse skin; 0.3% topical)	Inflammatory index (rhino mouse skin; 0.3% topical)
CC1=C(/C=C/C(C)=C/C=C/C(C)=C/C(=O)O)C(C)(C)CCC1 [ATRA, all-trans retinoic acid, reference compound]	inhibited the major collagen-degrading enzyme (MMP-1, collagenase 1)	induced procollagen I production	as expected, did	hyperplastic changes (increased epidermal thickening)	evidence of toxicity in the upper epidermis (i.e., incomplete keratinization with loss of granular layer)	68 ± 17	2 ± 2 per 20 mm of epidermal linear length	overall dermal layer is considerably thicker, and the utriculi have gone, the dermal layer has large necrotic areas, and is heavily infiltrated with activated leukocytes and macrophages	intense inflammatory cell infiltrate	low	1.55 ± 0.66 pg/mL	23 ± 4 pg/mL	158 ^± 43 pg/mL	low	increase in levels of MCP-1, IL-6 and KC/IL-8	–	–	–	–	–
CC1=C(/C=C/C(C)=C\C=C\C(C)=C\C(=O)N(C)CC(=O)C(C)(C)C)C(C)(C)CCC1 [Example 1, (2E,4E 6Z,8E)-N-(3,3-dimethyl-2-oxobutyl)-N,3,7-trimethyl-9-(2,6,6-trimethylcyclohex-1-en-1-yl)nona-2,4,6,8-tetraenamide]	–	–	–	hyperplastic changes (increased epidermal thickening)	not seen	–	–	–	did not produce an inflammatory response	low	–	–	–	low	–	reduced the number of utriculi as compared to control	–	–	–	–
CC1=C(/C=C/C(C)=C\C=C\C(C)=C\C(=O)N(C)CC(=O)c2ccccc2)C(C)(C)CCC1 [Example 2, (2E,4E 6Z,8E)-N,3,7-trimethyl—N-(2-oxo-2-phenylethyl)-9-(2,6,6-trimethylcyclohex-1-en-1-yl)nona-2,4,6,8-tetraenamide]	–	–	–	–	–	45 ± 8	7 ± 5 per 20 mm of epidermal linear length	normalization of dermal thickness, but still many structural remnants of utriculi	little inflammatory cell infiltrate	low	–	–	–	low	–	–	1.1 ± 0.6	44 ± 6	5 ± 3 per 20 mm of epidermal linear length	0.9 ± 0.4
